“Also recorded” adds a separate entry of the source.
Columns and labels:
neurospheres (NSPCs) = assay: Microarray with parametric analysis of gene set enrichment (PAGE) of FK866-treated neurospheres; format: cell-based, mouse
Experimental: For individual genes, raw microarray data were subjected to Z score transformation, and Z ratios were calculated as described previously (Cheadle et al, 2003). Subsequent analysis and Parametric Analysis of Gene Set Enrichment (PAGE) analysis was performed as previously described (Yoshino et al, 2011). The microarray data used in this study has been deposited into the NCBI GEO database (GEO accession number GSE49784).
The inventors investigated how inhibition of Nampt affects neurosphere proliferation. […] To distinguish whether this decrease in cell number was due to an inhibition of proliferation or enhancement of death, the inventors analyzed the protein levels of markers of proliferation, apoptosis, and autophagy. […] Parametric analysis of gene enrichment (PAGE) was conducted based on microarray analyses. See the Methods section. […] Data are presented as mean±s.e.m. *P<0.05. **P<0.01. ***P<0.001.

[1] = 12 month-long NMN administration study: adverse effects and toxicity; format: in vivo
Experimental: (§1) A 12 month-long NMN administration study using wild-type mice under a regular chow-fed condition was conducted. NMN was administered through drinking water, and two doses of NMN, 100 and 300 mg/kg body weight/day, were tested. […] To assess beneficial and possible adverse effects of NMN, a variety of physiological parameters were periodically monitored, including body weight, body temperature, food and water intake, fed and fasted blood glucose levels, fed and fasted plasma lipid panels, and glucose and insulin tolerance, in NMN-administered and control mice. Blood chemistry, blood cell counts, urine strip test, and other physiological tests including physical activity test were also checked.

[2] = Insulin tolerance test in old mice; format: in vivo, mouse; details: 100 and 300 mg/kg groups, body weight-matched, 12-month time point, 17 month-old mice
Experimental: as §1
(See Methods; Administration of NMN through Drinking Water and Determination of NMN Stability and Toxicity). As illustrated in FIG. 9A-B, insulin tolerance results from body weight-matched mice in the control and the 100 and 300 mg/kg NMN-administered groups at the 12-month time point are presented. Blood glucose levels (FIG. 9A) and percent glucose changes (FIG. 9B) after insulin injection are shown. The results were analyzed with two-way RANOVA and one-way ANOVA. All values are presented as mean±SEM (n=10-15 for each group).

[3] = Bone mineral density by dual-energy X-ray absorptiometry (DXA); format: in vivo, mouse; details: 12-month time point, 17-18 month old mice
Experimental: as §1
The inventors measured the bone mineral density (BMD) of control and NMN-treated mice at the 12-month time point of a 12 month long NMN administration experiment by dual-energy X-ray absorptiometry (DXA). At this time point, mice were 17-18 month old.

[4] = FK866 10 nM 48 hours, downregulated pathway
[5] = FK866 10 nM 48 hours, upregulated pathway

## O=C(/C=C/c1cccnc1)NCCCCC1CCN(C(=O)c2ccccc2)CC1 [FK866]
Neurospheres (NSPCs); [4]
  Z Ratio: BASE_EXCISION_REPAIR: −4.3
  Z Ratio: CELL_CYCLE_CHECKPOINT_GO_0000075: −3.92
  Z Ratio: CELL_CYCLE_GO_0007049: −4.63
  Z Ratio: CELL_CYCLE_PHASE: −4.23
  Z Ratio: CELL_CYCLE_PROCESS: −4.75
  Z Ratio: CHROMOSOMAL_PART: −3.48
  Z Ratio: CHROMOSOME: −4.75
  Z Ratio: CONDENSED_CHROMOSOME: −3.57
  Z Ratio: CONDENSED_NUCLEAR_CHROMOSOME: −3.36
  Z Ratio: DNA_DEPENDENT_DNA_REPLICATION: −6.07
  Z Ratio: DNA_INTEGRITY_CHECKPOINT: −3.2
  Z Ratio: DNA_METABOLIC_PROCESS: −6.49
  Z Ratio: DNA_RECOMBINATION: −3.69
  Z Ratio: DNA_REPAIR: −5.98
  Z Ratio: DNA_REPLICATION: −6.2
  Z Ratio: DOUBLE_STRANDED_DNA_BINDING: −3.95
  Z Ratio: HYDROLASE_ACTIVITY_HYDROLYZING_N_GLYCOSYL_COMPOUNDS: −3.63
  Z Ratio: INTERPHASE: −3.28
  Z Ratio: INTERPHASE_OF_MITOTIC_CELL_CYCLE: −3.07
  Z Ratio: INTRACELLULAR_NON_MEMBRANE_BOUND_ORGANELLE: −3.46
  Z Ratio: INTRACELLULAR_ORGANELLE_PART: −5.85
  Z Ratio: MACROMOLECULAR_COMPLEX: −4.14
  Z Ratio: MEMBRANE_ENCLOSED_LUMEN: −5.04
  Z Ratio: METHYLTRANSFERASE_ACTIVITY: −3.3
  Z Ratio: MITOTIC_CELL_CYCLE: −3.48
  Z Ratio: M_PHASE: −3.67
  Z Ratio: NON_MEMBRANE_BOUND_ORGANELLE: −3.46
  Z Ratio: NUCLEAR_CHROMOSOME: −4.11
  Z Ratio: NUCLEAR_LUMEN: −4.74
  Z Ratio: NUCLEAR_PART: −7.07
  Z Ratio: NUCLEOBASE_NUCLEOSIDE_AND_NUCLEOTIDE_METABOLIC_PROCESS: −3.35
  Z Ratio: NUCLEOBASE_NUCLEOSIDE_NUCLEOTIDE_AND_NUCLEIC_ACID: −5.34
  Z Ratio: NUCLEOLUS: −3.47
  Z Ratio: NUCLEOPLASM: −3.62
  Z Ratio: NUCLEOTIDE_METABOLIC_PROCESS: −3.21
  Z Ratio: NUCLEUS: −5.95
  Z Ratio: ORGANELLE_LUMEN: −5.04
  Z Ratio: ORGANELLE_PART: −5.72
  Z Ratio: PROTEIN_COMPLEX: −3.08
  Z Ratio: REPLICATION_FORK: −3.6
  Z Ratio: RESPONSE_TO_DNA_DAMAGE_STIMULUS: −5.8
  Z Ratio: RESPONSE_TO_ENDOGENOUS_STIMULUS: −4.18
  Z Ratio: RIBONUCLEOPROTEIN_COMPLEX: −3.49
  Z Ratio: RNA_BINDING: −3.44
  Z Ratio: RNA_PROCESSING: −4.32
  Z Ratio: SINGLE_STRANDED_DNA_BINDING: −3.17
  Z Ratio: STRUCTURE_SPECIFIC_DNA_BINDING: −4.08
  Z Ratio: TRANSFERASE_ACTIVITY_TRANSFERRING_ONE_CARBON_GROUPS: −3.37
  Z Ratio: TRNA_METABOLIC_PROCESS: −3.76
  Z Ratio: TRNA_PROCESSING: −3.51
Neurospheres (NSPCs); [5]
  Z Ratio: ACTIN_FILAMENT_BASED_PROCESS: 3.18
  Z Ratio: ANATOMICAL_STRUCTURE_DEVELOPMENT: 4.47
  Z Ratio: ANATOMICAL_STRUCTURE_MORPHOGENESIS: 3.39
  Z Ratio: AXON_GUIDANCE: 3.34
  Z Ratio: CELL_DEVELOPMENT: 3.44
  Z Ratio: CELL_JUNCTION: 3.29
  Z Ratio: CELL_MATRIX_ADHESION: 3.18
  Z Ratio: CELL_MATRIX_JUNCTION: 3.20
  Z Ratio: CELL_SUBSTRATE_ADHERENS_JUNCTION: 3.17
  Z Ratio: CELL_SURFACE_RECEPTOR_LINKED_SIGNAL_TRANS-DUCTION_GO_000166: 3.17
  Z Ratio: CYTOSKELETAL_PROTEIN_BINDING: 3.36
  Z Ratio: EARLY_ENDOSOME: 3.37
  Z Ratio: ENZYME_LINKED_RECEPTOR_PROTEIN_SIGNALING_PATHWAY: 4.05
  Z Ratio: EXTRACELLULAR_REGION: 4.10
  Z Ratio: EXTRACELLULAR_REGION_PART: 3.82
  Z Ratio: EXTRACELLULAR_SPACE: 3.66
  Z Ratio: FOCAL_ADHESION: 3.44
  Z Ratio: FOCAL_ADHESION_FORMATION: 3.83
  Z Ratio: GENERATION_OF_NEURONS: 3.34
  Z Ratio: Growth: 3.85
  Z Ratio: IDENTICAL_PROTEIN_BINDING: 3.19
  Z Ratio: INTERMEDIATE_FILAMENT: 3.61
  Z Ratio: INTERMEDIATE_FILAMENT_CYTOSKELETON: 3.61
  Z Ratio: LIGAND_DEPENDENT_NUCLEAR_RECEPTOR_ACTIVITY: 3.26
  Z Ratio: LIPID_HOMEOSTASIS: 3.28
  Z Ratio: MEMBRANE: 3.55
  Z Ratio: MESODERM_DEVELOPMENT: 3.45
  Z Ratio: MULTICELLULAR_ORGANISMAL_DEVELOPMENT: 4.64
  Z Ratio: NEGATIVE_REGULATION_OF_GROWTH: 3.84
  Z Ratio: NERVOUS_SYSTEM_DEVELOPMENT: 3.39
  Z Ratio: NEUROGENESIS: 3.21
  Z Ratio: NEURON_PROJECTION: 3.62
  Z Ratio: OLIGOSACCHARIDE_METABOLIC_PROCESS: 3.82
  Z Ratio: ORGAN_DEVELOPMENT: 4.28
  Z Ratio: PDZ_DOMAIN_BINDING: 3.26
  Z Ratio: PHOSPHOINOSITIDE_BINDING: 4.49
  Z Ratio: PLASMA_MEMBRANE: 3.46
  Z Ratio: POSITIVE_REGULATION_OF_SECRETION: 3.51
  Z Ratio: RECEPTOR_BINDING: 4.25
  Z Ratio: REGULATION_OF_CELL_GROWTH: 3.49
  Z Ratio: REGULATION_OF_GROWTH: 3.48
  Z Ratio: REGULATION_OF_SIGNAL_TRANSDUCTION: 3.77
  Z Ratio: SENSORY_PERCEPTION: 3.57
  Z Ratio: SIALYLTRANSFERASE_ACTIVITY: 1.61
  Z Ratio: SIGNAL_TRANSDUCTION: 3.47
  Z Ratio: SYSTEM_DEVELOPMENT: 4.69
  Z Ratio: SYSTEM_PROCESS: 3.74
  Z Ratio: TASTE_RECEPTOR_ACTIVITY: 3.36
  Z Ratio: TRANSMEMBRANE_RECEPTOR_PROTEIN_TYROSINE_KINASE_SIGNALING_PATH: 3.18
  Z Ratio: VACUOLE: 3.19
Neurospheres (NSPCs); FK866-treated neurospheres
  number of the top 50 downregulated pathways related to the cell cycle: 13
  top 50 upregulated pathways involved in cell death: none

## NC(=O)c1ccc[n+]([C@@H]2O[C@H](COP(=O)([O-])O)[C@@H](O)[C@H]2O)c1 [NMN, nicotinamide mononucleotide]
[1]; 100 mg/kg or 300 mg/kg body weight/day in drinking water, 12 months
  adverse effects or signs of toxicity: no adverse effects, such as malnutrition, or signs of toxicity were observed; also recorded: without showing any serious side effects
[1]; NMN in drinking water, through the experimental period
  water intake: did not change significantly
[1]; long-term NMN administration
  adverse effect on glucose metabolism: does not show any adverse effect on glucose metabolism
[2]
  insulin sensitivity (insulin tolerance test): significantly enhanced insulin sensitivity
[3]; 100 mg/kg group
  increase in the BMD: 2.8%
[3]; 300 mg/kg group
  increase in the BMD: 5.9%

Source: patent publication US11793824B2, “Administration of nicotinamide mononucleotide in the treatment of disease” (Washington University, priority 2013, dated 2023)
